Data: patent US10590140B2, “Tetrahydropyrimidodiazepine and dihydropyridodiazepine compounds for treating pain and pain related conditions” (ESTEVE PHARMACEUTICALS, S.A., priority 2016, dated 2020)

Target: human α2δ-1 subunit of Cav2.2 calcium channel (Homo sapiens (Human), UniProt P54289)
Assay: Binding assay to human α2δ-1 subunit of Cav2.2 calcium channel ([3H]-Gabapentin)
Conditions: binding to α2δ-1, [3H]-Gabapentin; read-out: Ki (nM) α2δ-1
In short: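 Radioactivity on dried GF/C filters quantified by scintillation after filtration and three cold Tris-HCl (pH 7.4) washes. Incubation ran 60 min at 27° C with [3H]-gabapentin; 10 μM pregabalin gave nonspecific binding.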

Chain of human α2δ-1 subunit of Cav2.2 calcium channel (P54289 25-1103): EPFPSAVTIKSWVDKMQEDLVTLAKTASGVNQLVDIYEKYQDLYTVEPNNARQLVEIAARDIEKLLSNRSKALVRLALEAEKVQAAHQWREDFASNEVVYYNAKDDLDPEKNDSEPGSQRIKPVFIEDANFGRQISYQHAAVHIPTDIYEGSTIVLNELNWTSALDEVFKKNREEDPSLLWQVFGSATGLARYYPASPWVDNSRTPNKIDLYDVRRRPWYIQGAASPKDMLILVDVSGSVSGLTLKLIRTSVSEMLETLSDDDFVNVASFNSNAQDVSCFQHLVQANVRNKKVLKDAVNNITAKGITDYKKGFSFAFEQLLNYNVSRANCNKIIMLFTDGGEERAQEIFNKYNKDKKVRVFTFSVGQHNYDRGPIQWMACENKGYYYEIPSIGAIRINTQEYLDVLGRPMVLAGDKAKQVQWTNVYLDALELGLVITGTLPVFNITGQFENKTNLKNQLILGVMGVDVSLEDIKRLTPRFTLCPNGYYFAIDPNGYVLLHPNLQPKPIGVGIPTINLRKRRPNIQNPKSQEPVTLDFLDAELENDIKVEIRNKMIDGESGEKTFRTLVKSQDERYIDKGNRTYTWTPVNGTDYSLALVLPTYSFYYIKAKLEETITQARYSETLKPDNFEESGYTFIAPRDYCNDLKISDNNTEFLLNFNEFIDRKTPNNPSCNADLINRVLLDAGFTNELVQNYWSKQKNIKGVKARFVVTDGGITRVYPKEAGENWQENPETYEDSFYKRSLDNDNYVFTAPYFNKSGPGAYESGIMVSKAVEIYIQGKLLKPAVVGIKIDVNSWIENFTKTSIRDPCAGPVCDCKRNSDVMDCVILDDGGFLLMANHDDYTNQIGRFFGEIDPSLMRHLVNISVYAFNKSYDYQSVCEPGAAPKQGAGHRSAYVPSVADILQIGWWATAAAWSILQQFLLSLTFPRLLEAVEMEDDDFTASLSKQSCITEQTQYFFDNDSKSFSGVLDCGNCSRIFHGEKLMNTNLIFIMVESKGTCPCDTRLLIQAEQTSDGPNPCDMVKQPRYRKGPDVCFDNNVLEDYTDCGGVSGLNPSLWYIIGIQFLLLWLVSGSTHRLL

SMILES | Ki [nM]
CCNc1ncc2c(n1)N(C)CCN(c1ccc(OC(CN(C)C(=O)OC(C)(C)C)c3ccccc3)cc1)C2=O (centres unmarked) [Example 76, tert-butyl (2-(4-(2-(ethylamino)-9-methyl-5-oxo-5,7,8,9-tetrahydro-6H-pyrimido[4,5-e][1,4]diazepin-6-yl)phenoxy)-2-phenylethyl)(methyl) carbamate] | > 3000
CCNc1ncc2c(n1)N(C)CCN(c1cccc(COC(CCN(C)C(=O)OC(C)(C)C)c3ccccc3)c1)C2=O (centres unmarked) [Example 77, tert-butyl (3-((3-(2-(ethylamino)-9-methyl-5-oxo-5,7,8,9-tetrahydro-6H-pyrimido[4,5-e][1,4]diazepin-6-yl)benzyl)oxy)-3-phenylpropyl)(methyl) carbamate] | > 3000
CCNc1ncc2c(n1)N(C)CCN(c1cccc(CO[C@H](CCN(C)C(=O)OC(C)(C)C)c3ccccc3)c1)C2=O [Example 78, tert-butyl (R)-(3-((3-(2-(ethylamino)-9-methyl-5-oxo-5,7,8,9-tetrahydro-6H-pyrimido[4,5-e][1,4]diazepin-6-yl)benzyl)oxy)-3-phenylpropyl)(methyl) carbamate] | > 3000
CCNc1ncc2c(n1)N(C)CCN(c1cccc(CO[C@@H](CCN(C)C(=O)OC(C)(C)C)c3ccccc3)c1)C2=O [Example 79, tert-butyl (S)-(3-((3-(2-(ethylamino)-9-methyl-5-oxo-5,7,8,9-tetrahydro-6H-pyrimido[4,5-e][1,4]diazepin-6-yl)benzyl)oxy)-3-phenylpropyl)(methyl) carbamate] | > 3000
CCNc1ncc2c(n1)N(C)CCN(c1cccc(OC(CCN(C)C(=O)OC(C)(C)C)c3cccs3)c1)C2=O (centres unmarked) [Example 80, tert-butyl (3-(3-(2-(ethylamino)-9-methyl-5-oxo-5,7,8,9-tetrahydro-6H-pyrimido[4,5-e][1,4]diazepin-6-yl)phenoxy)-3-(thiophen-2-yl)propyl)(methyl) carbamate] | > 3000
CCNc1ncc2c(n1)N(C)CCN(c1cccc(COC(CCN(C)C(=O)OC(C)(C)C)c3cccs3)c1)C2=O (centres unmarked) [Example 83, tert-butyl (3-((3-(2-(ethylamino)-9-methyl-5-oxo-5,7,8,9-tetrahydro-6H-pyrimido[4,5-e][1,4]diazepin-6-yl)benzyl)oxy)-3-(thiophen-2-yl)propyl)(methyl) carbamate] | > 3000
CCNc1ncc2c(n1)N(C)CCN(c1cccc(CO[C@H](CCN(C)C(=O)OC(C)(C)C)c3cccs3)c1)C2=O [Example 84, tert-butyl (R)-(3-((3-(2-(ethylamino)-9-methyl-5-oxo-5,7,8,9-tetrahydro-6H-pyrimido[4,5-e][1,4]diazepin-6-yl)benzyl)oxy)-3-(thiophen-2-yl)propyl)(methyl) carbamate] | > 3000
CCNc1ncc2c(n1)N(C)CCN(c1cccc(CO[C@@H](CCN(C)C(=O)OC(C)(C)C)c3cccs3)c1)C2=O [Example 85, tert-butyl (S)-(3-((3-(2-(ethylamino)-9-methyl-5-oxo-5,7,8,9-tetrahydro-6H-pyrimido[4,5-e][1,4]diazepin-6-yl)benzyl)oxy)-3-(thiophen-2-yl)propyl)(methyl) carbamate] | > 3000
CCNc1ncc2c(n1)N(C)CCN(c1cccc(COCC(c3ccccc3)N(C)C(=O)OC(C)(C)C)c1)C2=O (centres unmarked) [Example 86, tert-butyl (2-((3-(2-(ethylamino)-9-methyl-5-oxo-5,7,8,9-tetrahydro-6H-pyrimido[4,5-e][1,4]diazepin-6-yl)benzyl)oxy)-1-phenylethyl)(methyl) carbamate] | > 3000
CCNc1ncc2c(n1)N(C)CCN(c1cccc(COC(CN(C)C(=O)OCC[Si](C)(C)C)c3ccccc3)c1)C2=O (centres unmarked) [Example 87, 2-(trimethylsilyl)ethyl (2-((3-(2-(ethylamino)-9-methyl-5-oxo-5,7,8,9-tetrahydro-6H-pyrimido[4,5-e][1,4]diazepin-6-yl)benzyl)oxy)-2-phenylethyl)(methyl) carbamate] | > 3000
CCNc1ncc2c(n1)N(C)CCN(c1cccc(C(C)(C)CN(C)C(=O)OC(C)(C)C)c1)C2=O [Example 93, tert-butyl (2-(3-(2-(ethylamino)-9-methyl-5-oxo-5,7,8,9-tetrahydro-6H-pyrimido[4,5-e][1,4]diazepin-6-yl)phenyl)-2-methylpropyl)(methyl) carbamate] | > 3000

Further lines, results first:

Ki [nM] | SMILES
> 3000 | CCNc1ncc2c(n1)N(C)CCN(c1cccc(OC(C)CN(C)C(=O)OC(C)(C)C)c1)C2=O (centres unmarked) [Example 74, tert-butyl (2-(3-(2-(ethylamino)-9-methyl-5-oxo-5,7,8,9-tetrahydro-6H-pyrimido[4,5-e][1,4]diazepin-6-yl)phenoxy)propyl) (methyl)carbamate]
> 3000 | CCNc1ncc2c(n1)N(C)CCN(c1cccc(OC(CN(C)C(=O)OC(C)(C)C)C(C)C)c1)C2=O (centres unmarked) [Example 75, tert-butyl (2-(3-(2-(ethylamino)-9-methyl-5-oxo-5,7,8,9-tetrahydro-6H-pyrimido[4,5-e][1,4]diazepin-6-yl)phenoxy)-3-methylbutyl) (methyl)carbamate]
> 3000 | CCNc1ncc2c(n1)N(C)CCN(c1cccc(O[C@H](CCN(C)C(=O)OC(C)(C)C)c3cccs3)c1)C2=O [Example 81, tert-butyl (R)-(3-(3-(2-(ethylamino)-9-methyl-5-oxo-5,7,8,9-tetrahydro-6H-pyrimido[4,5-e][1,4]diazepin-6-yl)phenoxy)-3-(thiophen-2-yl)propyl)(methyl) carbamate]
> 3000 | CCNc1ncc2c(n1)N(C)CCN(c1cccc(O[C@@H](CCN(C)C(=O)OC(C)(C)C)c3cccs3)c1)C2=O [Example 82, tert-butyl (S)-(3-(3-(2-(ethylamino)-9-methyl-5-oxo-5,7,8,9-tetrahydro-6H-pyrimido[4,5-e][1,4]diazepin-6-yl)phenoxy)-3-(thiophen-2-yl)propyl)(methyl) carbamate]
> 3000 | CCNc1ncc2c(n1)N(C)CCN(c1cccc(OCCCN(C)C(=O)OC(C)(C)C)c1)C2=O [Example 88, tert-butyl (3-(3-(2-(ethylamino)-9-methyl-5-oxo-5,7,8,9-tetrahydro-6H-pyrimido[4,5-e][1,4]diazepin-6-yl)phenoxy)propyl) (methyl)carbamate]
> 3000 | CCNc1ncc2c(n1)N(C)CCN(c1cccc(OCCCN(Cc3ccccc3)C(=O)OC(C)(C)C)c1)C2=O [Example 89, tert-butyl benzyl (3-(3-(2-(ethylamino)-9-methyl-5-oxo-5,7,8,9-tetrahydro-6H-pyrimido[4,5-e][1,4]diazepin-6-yl)phenoxy)propyl) carbamate]
> 3000 | CCNc1ncc2c(n1)N(C)CCN(c1cccc(OCCN(C)C(=O)OC(C)(C)C)c1)C2=O [Example 90, tert-butyl (2-(3-(2-(ethylamino)-9-methyl-5-oxo-5,7,8,9-tetrahydro-6H-pyrimido[4,5-e][1,4]diazepin-6-yl)phenoxy)ethyl) (methyl)carbamate]
> 3000 | CCNc1ncc2c(n1)N(C)CCN(c1cccc(CCCN(C)C(=O)OC(C)(C)C)c1)C2=O [Example 91, tert-butyl (3-(3-(2-(ethylamino)-9-methyl-5-oxo-5,7,8,9-tetrahydro-6H-pyrimido[4,5-e][1,4]diazepin-6-yl)phenyl)propyl) (methyl)carbamate]
> 3000 | CCNc1ncc2c(n1)N(C)CCN(c1cccc(CCN(C)C(=O)OC(C)(C)C)c1)C2=O [Example 92, tert-butyl (3-(2-(ethylamino)-9-methyl-5-oxo-5,7,8,9-tetrahydro-6H-pyrimido[4,5-e][1,4]diazepin-6-yl)phenethyl)(methyl) carbamate]
